ChEMBL document CHEMBL1201862, “PubChem BioAssay data set” (2004)
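Where inhibition never reached the appropriate level, the endpoint shown equals the highest concentration tested. Otherwise, values were interpolated linearly from a five-concentration, 48-hour dose response in 96-well plates. GI50 marks 50% less growth.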 Calls of active or inactive are those of the source. No stated cut-off is given here; in the data, active = GI50 up to about 1.1 µM and inactive = higher.

Legend:
Assay in all cases: NCI anticancer screen, dose series, 48 h
K562 = test system: K562
SN12C = test system: SN12C
MDA-MB-231 = test system: MDA-MB-231
A549 = test system: A549
SK-MEL-28 = test system: SK-MEL-28
HCT-116 = test system: HCT-116
UACC-257 = test system: UACC-257
SF-295 = test system: SF-295
T47D = test system: T47D
EKVX = test system: EKVX
SW-620 = test system: SW-620
SK-MEL-5 = test system: SK-MEL-5
OVCAR-8 = test system: OVCAR-8
Hs-578T = test system: Hs-578T
SF-539 = test system: SF-539
M14 = test system: M14
786-0 = test system: 786-0
NCI-H23 = test system: NCI-H23
BT-549 = test system: BT-549
OVCAR-4 = test system: OVCAR-4
HL-60 = test system: HL-60
KM12 = test system: KM12
NCI-H460 = test system: NCI-H460
UACC-62 = test system: UACC-62
HT-29 = test system: HT-29
NCI-H226 = test system: NCI-H226
PC-3 = test system: PC-3
HOP-62 = test system: HOP-62
HCC 2998 = test system: HCC 2998
RXF 393 = test system: RXF 393
U-251 = test system: U-251
Malme-3M = test system: Malme-3M
ACHN = test system: ACHN
SK-OV-3 = test system: SK-OV-3
MCF7 = test system: MCF7
CAKI-1 = test system: CAKI-1
TK-10 = test system: TK-10
NCI/ADR-RES = test system: NCI/ADR-RES
DU-145 = test system: DU-145
NCI-H522 = test system: NCI-H522
SF-268 = test system: SF-268
COLO 205 = test system: COLO 205
OVCAR-3 = test system: OVCAR-3
HCT-15 = test system: HCT-15
IGROV-1 = test system: IGROV-1
A498 = test system: A498
MDA-N = test system: MDA-N
RPMI-8226 = test system: RPMI-8226
HOP-92 = test system: HOP-92
SNB-19 = test system: SNB-19
UO-31 = test system: UO-31
MOLT-4 = test system: MOLT-4
SK-MEL-2 = test system: SK-MEL-2
MDA-MB-435 = test system: MDA-MB-435
CCRF-CEM = test system: CCRF-CEM
OVCAR-5 = test system: OVCAR-5
LOX IMVI = test system: LOX IMVI

**Q.** How did the GI50 (K562) turn out when `COc1ccc([C@@]23Oc4cc(OC)cc(OC)c4[C@]2(O)[C@H](O)[C@H](C(N)=O)[C@H]3c2ccccc2)cc1` [DIDESMETHYLROCAGLAMIDE] was run?
**A.** Its GI50 is < 10 nM (active).

**Q.** And the GI50 (SN12C)?
**A.** The GI50 was < 10 nM (active).

**Q.** What about the GI50 (MDA-MB-231) of the same molecule?
**A.** The GI50 was < 10.8 nM (active).

**Q.** And the GI50 (A549)?
**A.** The GI50 was < 10 nM (active).

**Q.** And the GI50 (SK-MEL-28)?
**A.** The GI50 was < 10 nM (active).

**Q.** What about the GI50 (HCT-116) of the same molecule?
**A.** The GI50 was < 10 nM (active).

**Q.** And the GI50 (UACC-257)?
**A.** The GI50 was < 16.2 nM (active).

**Q.** What about the GI50 (SF-295) of the same molecule?
**A.** Its GI50 is < 10 nM (active).

**Q.** And the GI50 (T47D)?
**A.** Its GI50 is < 10 nM (active).

**Q.** And the GI50 (EKVX)?
**A.** Its GI50 is < 10.6 nM (active).

**Q.** What about the GI50 (SW-620) of the same molecule?
**A.** Its GI50 is < 10 nM (active).

**Q.** And the GI50 (SK-MEL-5)?
**A.** The GI50 was < 10 nM (active).

**Q.** What about the GI50 (OVCAR-8) of the same molecule?
**A.** The GI50 was < 10 nM (active).

**Q.** And the GI50 (Hs-578T)?
**A.** Its GI50 is < 10 nM (active).

**Q.** What about the GI50 (SF-539) of the same molecule?
**A.** The GI50 was < 10 nM (active).

**Q.** What about the GI50 (M14) of the same molecule?
**A.** Its GI50 is < 10 nM (active).

**Q.** And the GI50 (786-0)?
**A.** The GI50 was < 10 nM (active).

**Q.** What about the GI50 (NCI-H23) of the same molecule?
**A.** Its GI50 is < 10 nM (active).

**Q.** And the GI50 (BT-549)?
**A.** The GI50 was < 11.2 nM (active).

**Q.** And the GI50 (OVCAR-4)?
**A.** Its GI50 is < 12.6 nM (active).

**Q.** And the GI50 (HL-60)?
**A.** Its GI50 is < 19.2 nM (active).

**Q.** What about the GI50 (KM12) of the same molecule?
**A.** The GI50 was < 10 nM (active).

**Q.** What about the GI50 (NCI-H460) of the same molecule?
**A.** The GI50 was < 10 nM (active).

**Q.** And the GI50 (UACC-62)?
**A.** Its GI50 is < 10 nM (active).

**Q.** And the GI50 (HT-29)?
**A.** Its GI50 is < 10 nM (active).

**Q.** What about the GI50 (NCI-H226) of the same molecule?
**A.** The GI50 was < 10 nM (active).

**Q.** And the GI50 (PC-3)?
**A.** Its GI50 is < 10 nM (active).

**Q.** What about the GI50 (HOP-62) of the same molecule?
**A.** The GI50 was < 10 nM (active).

**Q.** What about the GI50 (HCC 2998) of the same molecule?
**A.** The GI50 was < 10 nM (active).

**Q.** What about the GI50 (RXF 393) of the same molecule?
**A.** The GI50 was < 10 nM (active).

**Q.** What about the GI50 (U-251) of the same molecule?
**A.** The GI50 was < 10 nM (active).

**Q.** And the GI50 (Malme-3M)?
**A.** Its GI50 is < 10 nM (active).

**Q.** What about the GI50 (ACHN) of the same molecule?
**A.** The GI50 was < 10 nM (active).

**Q.** What about the GI50 (SK-OV-3) of the same molecule?
**A.** The GI50 was < 10 nM (active).

**Q.** And the GI50 (MCF7)?
**A.** The GI50 was < 10 nM (active).

**Q.** What about the GI50 (CAKI-1) of the same molecule?
**A.** Its GI50 is < 16.4 nM (active).

**Q.** And the GI50 (TK-10)?
**A.** The GI50 was 10.5 nM (active).

**Q.** And the GI50 (NCI/ADR-RES)?
**A.** The GI50 was 65.6 nM (active).

**Q.** And the GI50 (DU-145)?
**A.** Its GI50 is < 10 nM (active).

**Q.** And the GI50 (NCI-H522)?
**A.** The GI50 was < 10 nM (active).

**Q.** And the GI50 (SF-268)?
**A.** Its GI50 is < 10 nM (active).

**Q.** What about the GI50 (COLO 205) of the same molecule?
**A.** Its GI50 is < 10 nM (active).

**Q.** And the GI50 (OVCAR-3)?
**A.** The GI50 was < 10 nM (active).

**Q.** What about the GI50 (HCT-15) of the same molecule?
**A.** Its GI50 is under 14.2 nM.

**Q.** What about the GI50 (IGROV-1) of the same molecule?
**A.** The GI50 was < 10 nM (active).

**Q.** And the GI50 (A498)?
**A.** Its GI50 is < 10 nM (active).

**Q.** What about the GI50 (MDA-N) of the same molecule?
**A.** Its GI50 is < 10 nM (active).

**Q.** And the GI50 (RPMI-8226)?
**A.** The GI50 was < 10 nM (active).

**Q.** What about the GI50 (HOP-92) of the same molecule?
**A.** The GI50 was < 10 nM (active).

**Q.** What about the GI50 (SNB-19) of the same molecule?
**A.** Its GI50 is < 10 nM (active).

**Q.** And the GI50 (UO-31)?
**A.** The GI50 was < 16.1 nM (active).

**Q.** And the GI50 (MOLT-4)?
**A.** Its GI50 is < 10 nM (active).

**Q.** And the GI50 (SK-MEL-2)?
**A.** The GI50 was < 10.6 nM (active).

**Q.** And the GI50 (MDA-MB-435)?
**A.** Its GI50 is < 10 nM (active).

**Q.** What about the GI50 (CCRF-CEM) of the same molecule?
**A.** Its GI50 is < 10 nM (active).

**Q.** And the GI50 (OVCAR-5)?
**A.** Its GI50 is 10.2 nM (active).

**Q.** What about the GI50 (LOX IMVI) of the same molecule?
**A.** The GI50 was < 10 nM (active).
